Test results reported in patent US8802635B2, “Antioxidant, anti-inflammatory, anti-radiation, metal chelating compounds and uses thereof” (Oneday—Biotech And Pharma Ltd., priority 2011, dated 2014).
Non-standard residues stand in square brackets, D forms with d. βAla = NCCC(=O)O

Experiments:
carnitine = test: Carnitine levels in mouse tissues; assay type: in vivo, mice; conditions: 250 mg/kg i.p. for 5 consecutive days
Procedure: Male ICR mice were injected i.p. with 250 mg/kg DY-65 for 5 consecutive days. Half an hour after the last injection lung, heart, skeletal muscle (femural), brain, liver, kidney and blood were removed, homogenized (100 mg tissue in 200 μl distilled water), centrifuged and filtrated through 30K Microcon® filter. Carnitine analysis was carried out by a commercial kit (BioVision, catalogue number K642-100). n=4 for each group.

[1] = tested on: alanine aminotransferase (ALT) in plasma / liver necrosis; test: Concanavalin A-induced liver inflammation in C57BL/6 mice; assay type: in vivo
Procedure: Six groups of C57BL/6 female mice (7-8 weeks old) containing 6 mice in each group were injected i.p. with different peptide on days −3, −2, −1 at a dose of 50 mg/kg or with PBS alone. On day zero all the mice were injected i.v. with 250 μg/mouse of Con A and 45 min. later they were injected i.p. with 150 mg/kg of each peptide or PBS.
Eight hours after Con A injection mice were bled into heparinized tubes (approx. 150 ul of blood from each mouse) and the levels of alanine aminotransferase (ALT) was measured in the plasma.
One day later the mice were sacrificed and their livers were placed in 4% formalin and sent for pathological examination.
Next, peptide DY-66 was examined and compared to N-acetylcysteine (NAC), CB3 and CB4. The compounds were tested according to the procedure described above. ConA dose was 180 μg/mouse.
FIG. 8 presents the change in ALT levels (%) for each of the tested compounds compared to PBS treatment (i.e., the ratio between ALT levels in samples obtained from mice treated with a tested compound and ALT levels in samples obtained from PBS-treated mice)

HaCaT cells = test: UVB-induced cytotoxicity in HaCaT cells (MTT); assay type: cell-based; conditions: UVB 0.05 J/cm^2; MTT after 72 hours
Procedure: HaCaT cells were seeded in 96-wells plate (10×10^4/ml) and incubated in 37° C., 6% CO2 for 24 hours. Cells were incubated with the peptides at the indicated concentrations for 2.5 hours and washed (PBS). Then 100 μl PBS were added to each well followed by UVB irradiation (0.05 J/cm^2). Cells were washed with PBS and incubated with culture medium (DMEM, 100 μl) containing the peptides. MTT assay was carried out after 72 hours.

[2] = Metal chelation: ferric ion binding by mass spectra (ESI); conditions: 0.83 mM peptide, 1.66 mM FeCL3, 1 hour room temperature
Procedure: All five peptides were examined for their ability to bind copper and ferric ions. 0.83 mM of each peptide were mixed with 1.66 mM of either FeCL3 or CuSO4. The mixtures were incubated for 1 hour at room temperature and further kept at ° 4 C until analysis. Samples were analyzed by mass spectra (ESI).

ROS = ROS levels in C57Bl/6 mice after LPS injection; assay type: in vivo; conditions: 6 h after LPS
Procedure: C57BL/6 female mice (7-8 weeks old) were injected i.p. with the peptide or PBS on days −3, −2, −1 at a dose of 50 mg/kg or with PBS alone (6 mice in each group). On day zero all the mice were injected i.p. with 200 μg/mouse of LPS and 45 min. later they were injected i.p. with 150 mg/kg of the peptide. Another group of 3 mice served as normal untreated mice. […]

NF-κB = test: Nuclear translocation of NF-κB in lung, zymosan-induced inflammation; assay type: in vivo, mice; conditions: lung tissue, 24 hours after zymosan; i.p. dosing as Example 3; p<0.05
Procedure: Male BALB/c mice were randomly allocated into the following experimental groups:
The peptides were administered by an intraperitoneal (i.p.) route of administration as described in Example 3.
The peptides were formulated in D5W as described in Example 3. The vehicle control was D5W.
At 24 hours after administration of zymosan, animals were euthanized and assessed for inflammation by an NF-κB analysis of lung tissue.
Tissues were homogenized and nuclear extracts prepared via centrifugation. […]

[3] = tested on: granulocytes at the peritoneal lavages; test: Ovalbumin-induced hypersensitivity: percentage of granulocytes in peritoneal lavage (FACS); assay type: in vivo, mice; conditions: 125 mg/kg; Mann-Whitney with Bonferroni correction, p<=0.0125
Procedure: Hypersensitivity was induced as described in Example 5. The mice were treated according to the above protocol with PBS alone (“PBS”, no OVA and no Alum), OVA (“OVA”), OVA+CB3 104 mg/kg, OVA+DY-66 83 mg/kg and OVA+DY-66 125 mg/kg. In all groups, 9 mice were used except for OVA+DY-66 83 mg/kg, where 10 mice were used.
At day 16 the animals were sacrificed, the peritoneum was washed with 4-5 ml of sterile PBS, centrifuged and the cells were re-suspended in sterile PBS containing FCS 2%.
Percentage of granulocytes at the peritoneal lavages were measured by the use of FACS machine analysis of all cells during 10 second flow, followed by a careful analysis of the FACS dot plots.

[4] = Con A 250 μg/mouse i.v., 8 h after Con A

N-acetyl-Cys-Lys-Met-Cys-NH2 (Ac-CKMC-NH2; cysteine pairing not given here) [DY-65]
increase in the level of carnitine in other tissues (carnitine): about 70%
increase in the level of carnitine in some tissues (carnitine; significant elevation): about 150%
mice found dead ([1]; 24 hours post Con A 250 μg, 6 mice in each group): 1
protection against UVB-induced cytotoxicity (in words) (HaCaT cells): protective effect at low concentrations

N-acetyl-Cys-βAla-His-Cys-NH2 (Ac-C[βAla]HC-NH2; cysteine pairing not given here) [DY-66]
FeCl binding (in words) [2]: binding was observed
ROS levels in platelets and RBCs compared to PBS-treated mice (in words) (ROS; 50 mg/kg i.p. days -3,-2,-1 and 150 mg/kg 45 min after LPS): significant reduction in ROS levels
ROS level in platelets, % of the level in PBS-treated mice (ROS; p<0.005): approximately 55%
ROS level in RBCs, % of the level in PBS-treated mice (ROS; p<0.05): approximately 75%
necrotic area in liver, histo-pathological report (in words) ([1]; Con A 250 μg/mouse i.v.): significant (p=0.011) decrease in necrotic area
reduction of ALT average compared to PBS-treated mice [1, 4]: 69%
reduction of ALT median compared to PBS-treated mice [1, 4]: 75%
reduction of ALT average compared to PBS-treated mice ([1]; ConA dose 180 μg/mouse): 71%
reduction of ALT median compared to PBS-treated mice ([1]; ConA dose 180 μg/mouse): 89%
protection against UVB-induced cytotoxicity (in words) (HaCaT cells): protective effect at low concentrations
inhibition of the increase in nuclear p65 translocation (NF-κB): ca. 80%
difference in percentage of granulocytes (medians) between OVA and OVA+peptide [3]: highly significant
